For ten molecules, MIC results are on record in ChEMBL document CHEMBL4130562, “Design, Synthesis, and Antibacterial Evaluation of Oxazolidinones with Fused Heterocyclic C-Ring Substructure” (ACS Med Chem Lett, 2017).

Converted amounts (≈) assume the structure as drawn.

Holding throughout (assay type): functional
For assay [1], the system named is Staphylococcus aureus. In words: Antibacterial activity against Staphylococcus aureus ATCC 6538P by microbroth dilution method. On the technique in general: Dilution methods test growth across graded concentrations, often in twofold steps.
A further assay relates to Enterococcus faecalis. In words: Antibacterial activity against Enterococcus faecalis ATCC 29212 by microbroth dilution method.
Assay [2] concerns Staphylococcus aureus. The assay can be described thus: Antibacterial activity against Staphylococcus aureus ATCC 29213 by microbroth dilution method.
In assay [3] the test system is Staphylococcus aureus. The assay can be described thus: Antibacterial activity against Staphylococcus aureus ATCC 33591 by microbroth dilution method.
A further assay has as its system Streptococcus pyogenes. In words: Antibacterial activity against Streptococcus pyogenes ATCC 19615 by microbroth dilution method.
Assay [4] relates to Staphylococcus aureus. In words: Antibacterial activity against linezolid-resistant Staphylococcus aureus by microbroth dilution method.
A further assay deals with Enterococcus faecium. The assay can be described thus: Antibacterial activity against Enterococcus faecium 19434 by microbroth dilution method.
Assay [5] has as its system Staphylococcus epidermidis. In words: Antibacterial activity against Staphylococcus epidermidis ATCC 14990 by microbroth dilution method.
Another assay has as its system Haemophilus influenzae. The assay can be described thus: Antibacterial activity against Haemophilus influenzae ATCC 49247 by microbroth dilution method.
For another assay, the system named is Streptococcus pneumoniae. The assay can be described thus: Antibacterial activity against Streptococcus pneumoniae 55143 by microbroth dilution method.
For assay [6], the system named is Staphylococcus aureus. In words: Antibacterial activity against methicillin-resistant Staphylococcus aureus 1201984 by microbroth dilution method.

In the case of `Cl.NC[C@H]1CN(c2ccc(-c3ccc4c(c3)NC(=O)CO4)c(F)c2)C(=O)O1`, the MIC was 4 µg/mL with Staphylococcus aureus [1]; 8 µg/mL in the assay on Enterococcus faecalis; 8 µg/mL with Staphylococcus aureus [2]; 16 µg/mL in the assay with Staphylococcus aureus [3]; 4 µg/mL against Streptococcus pyogenes; > 32 µg/mL against Staphylococcus aureus [4]. The MIC against Enterococcus faecium came to 4 µg/mL; in [5], 4 µg/mL; against Haemophilus influenzae it was 4 µg/mL; with Streptococcus pneumoniae it was 4 µg/mL; in the assay with Staphylococcus aureus [6], 8 µg/mL.
Turning to `O=C1COc2c(cccc2-c2ccc(N3C[C@H](CO)OC3=O)cc2F)N1`, the MIC with Staphylococcus aureus [1] is 8 µg/mL (≈ 22.3 µM); in the assay on Enterococcus faecalis, 16 µg/mL (≈ 44.7 µM); in the assay on Staphylococcus aureus [2] it was 2 µg/mL (≈ 5.58 µM); against Staphylococcus aureus [3] it was 4 µg/mL (≈ 11.2 µM); in the assay with Streptococcus pyogenes, 8 µg/mL (≈ 22.3 µM); in the assay on Staphylococcus aureus [4], > 32 µg/mL. Moreover, the MIC was determined as 32 µg/mL (≈ 89.3 µM) with Enterococcus faecium; 2 µg/mL (≈ 5.58 µM) in [5]; 1 µg/mL (≈ 2.79 µM) against Haemophilus influenzae; 8 µg/mL (≈ 22.3 µM) in the assay on Streptococcus pneumoniae; 8 µg/mL (≈ 22.3 µM) against Staphylococcus aureus [6].
On to `CCC(=O)NC[C@H]1CN(c2ccc(-c3ccc4c(c3)NC(=O)CO4)c(F)c2)C(=O)O1`, for which the MIC against Staphylococcus aureus [1] was 0.125 µg/mL (≈ 0.302 µM); with Enterococcus faecalis, 0.25 µg/mL (≈ 0.605 µM); in the assay on Staphylococcus aureus [2] it was 0.25 µg/mL (≈ 0.605 µM); with Staphylococcus aureus [3] it was 0.25 µg/mL (≈ 0.605 µM); in the assay on Streptococcus pyogenes, 0.25 µg/mL (≈ 0.605 µM); against Staphylococcus aureus [4], 1 µg/mL (≈ 2.42 µM). Besides, the MIC was determined as 0.06 µg/mL (≈ 0.145 µM) with Enterococcus faecium; 0.125 µg/mL (≈ 0.302 µM) in [5]; 0.25 µg/mL (≈ 0.605 µM) with Haemophilus influenzae; 0.5 µg/mL (≈ 1.21 µM) against Streptococcus pneumoniae; 0.5 µg/mL (≈ 1.21 µM) with Staphylococcus aureus [6].
As for `O=C1COc2cccc(-c3ccc(N4C[C@H](CO)OC4=O)cc3F)c2N1`, the MIC with Staphylococcus aureus [1], against Enterococcus faecalis, against Staphylococcus aureus [2], against Staphylococcus aureus [3], in the assay with Streptococcus pyogenes and with Staphylococcus aureus [4] was > 32 µg/mL each time. Also, the MIC (with Enterococcus faecium; in assay [5]; against Haemophilus influenzae; against Streptococcus pneumoniae; with Staphylococcus aureus [6]) was > 32 µg/mL throughout.
`Cc1nc2ccc(-c3ccc(N4C[C@H](CO)OC4=O)cc3F)cc2c(=O)[nH]1`: the MIC in the assay with Staphylococcus aureus [1] was 0.125 µg/mL (≈ 0.338 µM); against Enterococcus faecalis, 0.5 µg/mL (≈ 1.35 µM); in the assay on Staphylococcus aureus [2], 0.25 µg/mL (≈ 0.677 µM); against Staphylococcus aureus [3], 0.5 µg/mL (≈ 1.35 µM); in the assay with Streptococcus pyogenes, 0.25 µg/mL (≈ 0.677 µM); in the assay on Staphylococcus aureus [4] it was 2 µg/mL (≈ 5.41 µM). Also, the MIC with Enterococcus faecium is 0.25 µg/mL (≈ 0.677 µM); in assay [5], 0.125 µg/mL (≈ 0.338 µM); in the assay with Haemophilus influenzae, 0.5 µg/mL (≈ 1.35 µM); against Streptococcus pneumoniae it was 0.25 µg/mL (≈ 0.677 µM); against Staphylococcus aureus [6] it was 0.25 µg/mL (≈ 0.677 µM).
With `O=C1NCCOc2ccc(-c3ccc(N4C[C@H](CO)OC4=O)cc3F)cc21`, the MIC was found to be 0.25 µg/mL (≈ 0.671 µM) in the assay on Staphylococcus aureus [1]; 0.5 µg/mL (≈ 1.34 µM) with Enterococcus faecalis; 0.5 µg/mL (≈ 1.34 µM) with Staphylococcus aureus [2]; 1 µg/mL (≈ 2.69 µM) against Staphylococcus aureus [3]; 0.5 µg/mL (≈ 1.34 µM) in the assay with Streptococcus pyogenes; 4 µg/mL (≈ 10.7 µM) against Staphylococcus aureus [4]. The MIC in the assay on Enterococcus faecium was 0.5 µg/mL (≈ 1.34 µM); in [5], 0.25 µg/mL (≈ 0.671 µM); with Haemophilus influenzae, 1 µg/mL (≈ 2.69 µM); in the assay with Streptococcus pneumoniae, 0.5 µg/mL (≈ 1.34 µM); against Staphylococcus aureus [6], 0.5 µg/mL (≈ 1.34 µM).
For `O=C1O[C@@H](CO)CN1c1ccc(-c2ccc3oc(=O)[nH]c3c2)c(F)c1`, the MIC in the assay on Staphylococcus aureus [1] is 0.25 µg/mL (≈ 0.726 µM); in the assay with Enterococcus faecalis it was 0.5 µg/mL (≈ 1.45 µM); in the assay with Staphylococcus aureus [2], 1 µg/mL (≈ 2.9 µM); against Staphylococcus aureus [3] it was 32 µg/mL (≈ 92.9 µM); against Streptococcus pyogenes it was 0.125 µg/mL (≈ 0.363 µM); against Staphylococcus aureus [4] it was 4 µg/mL (≈ 11.6 µM). Besides, the MIC in the assay with Enterococcus faecium was 0.25 µg/mL (≈ 0.726 µM); in assay [5] it was < 0.06 µg/mL; against Haemophilus influenzae, 4 µg/mL (≈ 11.6 µM); against Streptococcus pneumoniae it was 0.125 µg/mL (≈ 0.363 µM); with Staphylococcus aureus [6] it was 32 µg/mL (≈ 92.9 µM).
`O=C1COc2ccc(-c3ccc(N4C[C@H](CNC(=O)C5CCC5)OC4=O)cc3F)cc2N1`: the MIC in the assay on Staphylococcus aureus [1] worked out at 0.125 µg/mL (≈ 0.284 µM); with Enterococcus faecalis, 0.06 µg/mL (≈ 0.137 µM); against Staphylococcus aureus [2] it was 0.5 µg/mL (≈ 1.14 µM); in the assay with Staphylococcus aureus [3], 0.5 µg/mL (≈ 1.14 µM); in the assay with Streptococcus pyogenes, 1 µg/mL (≈ 2.28 µM); against Staphylococcus aureus [4], 2 µg/mL (≈ 4.55 µM). In addition, the MIC against Enterococcus faecium turned out to be 0.06 µg/mL (≈ 0.137 µM); in [5] it was 0.25 µg/mL (≈ 0.569 µM); in the assay on Haemophilus influenzae it was 1 µg/mL (≈ 2.28 µM); with Streptococcus pneumoniae it was 1 µg/mL (≈ 2.28 µM); with Staphylococcus aureus [6], 0.5 µg/mL (≈ 1.14 µM).
`O=C1O[C@@H](CO)CN1c1ccc(-c2ccc3c(c2)NC(=O)C2(CC2)O3)c(F)c1`: the MIC was < 0.06 µg/mL in the assay with Staphylococcus aureus [1]; 0.125 µg/mL (≈ 0.325 µM) with Enterococcus faecalis; 0.25 µg/mL (≈ 0.65 µM) against Staphylococcus aureus [2]; 0.5 µg/mL (≈ 1.3 µM) with Staphylococcus aureus [3]; 0.25 µg/mL (≈ 0.65 µM) against Streptococcus pyogenes; 2 µg/mL (≈ 5.2 µM) in the assay with Staphylococcus aureus [4]. For the same molecule, the MIC with Enterococcus faecium is < 0.06 µg/mL; in [5], < 0.06 µg/mL; against Haemophilus influenzae it was 0.5 µg/mL (≈ 1.3 µM); with Streptococcus pneumoniae, 0.25 µg/mL (≈ 0.65 µM); against Staphylococcus aureus [6], < 0.06 µg/mL.
For the molecule `O=C1O[C@@H](CO)CN1c1ccc(-c2ccc3c(c2)OCCO3)c(F)c1`, the MIC was 1 µg/mL (≈ 2.9 µM) in the assay with Staphylococcus aureus [1]; 4 µg/mL (≈ 11.6 µM) against Enterococcus faecalis; 4 µg/mL (≈ 11.6 µM) against Staphylococcus aureus [2]; 32 µg/mL (≈ 92.7 µM) in the assay on Staphylococcus aureus [3]; 0.5 µg/mL (≈ 1.45 µM) in the assay on Streptococcus pyogenes; > 32 µg/mL in the assay on Staphylococcus aureus [4]. Moreover, the MIC in the assay with Enterococcus faecium was 2 µg/mL (≈ 5.79 µM); in assay [5], 0.06 µg/mL (≈ 0.174 µM); against Haemophilus influenzae, 8 µg/mL (≈ 23.2 µM); against Streptococcus pneumoniae it was 0.5 µg/mL (≈ 1.45 µM); in the assay with Staphylococcus aureus [6] it was 32 µg/mL (≈ 92.7 µM).
